Read-outs that look alike come from different tables or passages of the source. Where a SMILES comes first, the peptide text is derived from it.
Legend:
[1] = supplier data; ref Thermo Scientific; cited from earlier work
Description: Killer peptide ([…], MW: 998.2, isoelectric point: 8.97) was acquired from Thermo Scientific (Rockford, IL, USA). Sodium hyaluronate (Hyal, MW: 15–30 kDa) was obtained from Contipro (Praha, Czech Republic). Chitosan (Chito, MW: 66 kDa, degree of deacetylation: 96%) was from Primex (Siglufjordur, Iceland). Acetic acid was from Merck. Ultrapure (UP) water was obtained by inverse osmosis using an Arium Comfort® system by Sartorius (Gottingen, Germany). Solvents and reagents were from Avantor, VWR, unless otherwise specified. Resazurin and chlorophenol red-β-D-galactopyranoside (CPRG) were ...

[2] = system: T. gondii β-gal-RH (Type I) intracellular tachyzoites in HFFs; test: Toxo-β-gal assay, post-infection model (intracellular parasites); type: cell-based, Toxoplasma gondii; details: dose-response, 48 h
Experimental: T. gondii β-gal-RH (Type I) is a genetically modified strain constitutively expressing β-galactosidase under the control of the promoter SAG1 (constitutive promoter). Susceptibility of T. gondii β-gal to the tested compounds was assessed by determining IC50 values based on β-galactosidase assay, as described by Păunescu et al. Briefly, HFFs (5 × 10^3/well) were seeded into 96-well plates, and once confluent, 200 µL of a suspension of parasites prepared in DMEM + 10% FBS at the concentration of 7.5 × 10^4/mL was added to each well resulting in 1.5 × 10^4 parasites per well.
Plates were incubated for 48 h 37 °C, 5% CO2, then cultures were washed once with 200 μL/well of PBS 1×. […] In total, 10 μL of 5 mM chlorophenol red-β-D-galactopyranoside (CPRG) was added to each well, and the reaction was monitored until saturation (usually reached in 30 min) by repeatedly measuring absorbance at 570 nm. The values obtained from the initial readings were subtracted from the respective final readings, and from these, the averages of each group were calculated. This was followed by calculation of the standard deviation and the calculation of percentage (normalized) absorbance, which was obtained from a ratio between the mean of the treatments and the mean of the negative control (DMEM 10% FBS), multiplied by 100. […]

[3] = Experimental: Before formulation, peptide solubility and gelation properties were evaluated by dispersing the powder in different solvents, namely ultrapure water, phosphate-buffered saline, ethanol, methanol, or isopropanol, to evaluate its solubility and gelation properties and select the more appropriate formulative approach by microfluidics.
The solubility of KP and the flowability of the resulting solution are critical elements for microfluidic processing, since viscous solutions cannot be used, as they alter laminar flow conditions or clog the chip’s channels. For this reason, common solvents were screened to select those providing the highest solubility, to prevent spontaneous precipitation of the peptide, without neglecting their acceptability from the toxicological point of view.

[4] = Stability of free KP and KP-NPs under stress conditions (60 °C, acid, alkali); details: 2 h, Micro BCA
Experimental: Moreover, KP-NPs were exposed to harsh conditions, to assess the ability of the formulation to protect KP from environmental degradation. […] These three samples were exposed to high temperatures (60 °C) for 2 h, then particle size and KP content were evaluated as described above.
To further assess the stability of KP-NPs and their potential protective effect on KP, both free KP and KP-NPs were subjected to harsh stress conditions, namely high temperature (60 °C) and strong acidic or alkaline environment (0.1 M HCl or NaOH) for two hours. […] As for nanoparticles, particle size was checked (Table 3), and the amount of KP released quantified.

[5] = system: T. gondii free tachyzoites; test: Free tachyzoites exposure, parasite quantification by real-time PCR (B1 gene); type: cell-based, Toxoplasma gondii
Experimental: Additionally, the same experiment was performed in duplicate to extract DNA for subsequent quantification of the parasite using real-time PCR CFX96™ Biorad® (version 3.1) (without using coverslips in the wells). The protocol by Santoro et al., amplifying the target B1 gene using Taqman technology, was optimized by defining the appropriate annealing temperature and amplification cycles. A standard curve for quantification was generated using T. gondii RH-WT grown in HFF cells, to ensure consistency in the results. DNA was extracted with the commercial kit Invitrogen PureLink™ Genomic DNA Mini Kit (Thermo Fisher Scientific, Waltham, Massachusetts, USA) from infected cells (control/treatment) 48 h after seeding, and it was used for amplification of the B1 gene.
The resulting product was loaded onto an agarose gel, and the corresponding band was excised for DNA quantification (12.3 ng/µL). From this, the number of copies per µL (1.1 × 10^11) was calculated using Copy Number Calculator (accessed on 11 April 2025)), and a standard curve was generated via serial dilutions (starting from a concentration of 10^8 copies of DNA/µL down to 10^2 copies of DNA/µL). Each condition was tested in four wells; three independent experiments were conducted.

[6] = system: intracellular tachyzoites of T. gondii; details: in vitro; cited from earlier work
Description: From a parasitological point of view, the fact that the nanoparticles developed here are effective against T. gondii, also without KP, is very intriguing and represents a novel finding. In fact, to the best of our knowledge, no literature describes a parasiticidal role of hyaluronate; while some studies have investigated the parasiticidal activity of chitosan-based nanoparticles, this was limited to the extracellular form or fre ...

[7] = real-time PCR B1 gene, 48 h, KP 250 µg/mL or corresponding NPs

| Compound | isoelectric point [1] | Efficacy against intracellular T. gondii (in words) [2] | Sol-gel transition kinetics in water ([3]; KP 3.5 mg/mL, room temperature) | Sol-gel transition kinetics in water ([3]; KP 5 mg/mL) | Gelation in ethanol ([3]; after dissolution at 2 mg/mL) | Solubility in ethanol ([3]; at least up to) [µg/mL] | Solubility in PBS ([3]; phosphate-buffered saline) | Solubility in acetone ([3]; powder dispersed in solvent) | Solubility in isopropanol ([3]; powder dispersed in solvent) | Solubility in methanol ([3]; verified up to) [µg/mL] | Recovery of peptide after stress ([4]; acidic conditions (0.1 M HCl), 60 °C) | Peptide degraded after stress ([4]; alkaline conditions (0.1 M NaOH), 60 °C) | Recovery of peptide after stress ([4]; high temperature (60 °C)) | % Reduction Rate (parasite load) ([5]; compared to the control (DMEM), KP 250 µg/mL or corresponding NPs) [%] | Log SQ [5, 7] | SQ Mean [5, 7] | Cq Mean ([5]; real-time PCR B1 gene, DNA extracted 48 h after seeding, KP 250 µg/mL or corresponding NPs) | FC ([5]; vs DMEM control) | ΔCq ([5]; vs DMEM control) | IC50 [6] [µg/mL] |
| --- | --- | --- | --- | --- | --- | --- | --- | --- | --- | --- | --- | --- | --- | --- | --- | --- | --- | --- | --- | --- |
| CSCC[C@H](NC(=O)[C@@H](NC(=O)[C@@H](NC(=O)[C@H](CCCCN)NC(=O)[C@H](C)N)C(C)C)[C@@H](C)O)C(=O)N[C@H](C(=O)N[C@@H](CS)C(=O)N[C@@H](CO)C(=O)N[C@@H](C)C(=O)N[C@@H](CO)C(=O)O)[C@@H](C)O [KP] (H-AKVTMTCSAS-OH; N-terminus and C-terminus assumed) | 8.97 | did not exhibit any efficacy | over the course of two days | almost instantaneous | almost immediate transition, leading to the formation of a thick gel | ≥ 2000 | practically insoluble | practically insoluble | practically insoluble | ≥ 2000 | full recovery | approximately 20% | full recovery | 94.6 | 3.741 | 6041 | 28.17 | 0.072 | 3.80 | – |
| spiramycin | – | – | – | – | – | – | – | – | – | – | – | – | – | – | – | – | – | – | – | 218 |

Source: article PMC12389415, “Killer Peptide-Containing Polyelectrolytic Nanocomplexes to Fight Toxoplasma gondii Infection” (Pharmaceutics, 2025)
